System: U87MG intracranial brain tumors
Assay: In vivo antitumor efficiency of gene silencing-enhanced radiotherapy
Design: species or system mice
Description: For the animal experiments, luciferase expression plasmid-transfected U87MG cell-implanted pathogen-free male NU/NU mice (5-7 weeks old, 20-25 g, from BioLASCO, Taiwan) were employed in this study. U87MG cells were cultured at 37° C. with 5% CO2 in M EM with 10% fetal bovine serum and 1% penicillin/streptomycin (Invitrogen). Mice were anaesthetized with 2% isoflurane gas and immobilized on a stereotactic frame to implant U87MG cells. A sagittal incision in the skin overlying the calvarium was created. U87MG cell implantation was performed by creating a hole in the exposed cranium 1.5 mm anterior and 2 mm lateral to the bregma using a 27G needle. A total volume of 5 μL of U87MG cell suspension (1×10^5 cell/μL) was injected at a depth of 3 mm from the brain surface over a 5 min period. The needle was withdrawn over 2 min. MRI was performed to monitor brain tumor growth for 7 days after tumor cell implantation.
The details of the CE D procedure are as described in our previous study. Briefly, infusion cannulas were fabricated with silica tubing (Polymicro Technologies, Phoenix, AZ, USA) fused to a 0.1 mL syringe (Plastic One, Roanoke, VA, USA) with a 0.5 mm stepped-tip needle that protruded from the silica guide base. The treatment agents (VLPs or drugs) were loaded into the syringes and attached to a microinfusion pump (Bioanalytical Systems, Lafayette, IN, USA). The syringe with a silica cannula was mounted onto a stereotactic holder and then lowered through a puncture hole made in the skull to the implanted tumor. The sample solution was infused at a rate of 1 μL/min until a volume of 5 μL had been delivered, and the cannula was removed 2 min later.
All animal experiments were approved by the Animal Committee of Chang Gung University and adhered to the experimental animal care guidelines (IACUC NO. CGU106-036). Mice were raised in a room with a thermostat at 26° C. Nu/Nu mice weighing approximately 25-30 g (5-6 weeks old) were tested to confirm the efficacy of the proposed approach. Intracranial brain tumors were induced by transplantation of U87MG cells into mouse brains. Briefly, cultured U87MG cells (5×10^5 cells/mouse) were injected over a 2 min period into the brain using a syringe, and needle withdrawal was conducted over another period of 0.5 min. A total of 50 mice were used, and the experiments were divided into five groups. In Group 1 (n=10), the mice received no further treatment after transplantation of U87MG cells, and these mice served as the control. In Group 2 (n=10), the mice received TrQβ VLPs (5 μM) via CED infusion two times (every 7 days) after 7 days of U87MG cell transplantation. […] The intracranial tumor volume in mice was measured by MR imaging. The survival time was calculated from the day of U87MG cell inoculation (0 day) to the day of death. […]

[1] = CED infusion followed by 2Gy X-ray irradiation

N.N.O=C([O-])C1(C(=O)[O-])CCC1.[Pt+2] [carboplatin]
median survival [1]: 51 days | mice survived over 54 days [1]: 10% | tumor volume by MRI (Day 34, CED infusion followed by 2Gy X-ray irradiation): 18.9±17.8 mm3 | tumor volume by MRI (Day 41, CED infusion followed by 2Gy X-ray irradiation): 55.2±36.5 mm3

Reference: patent US20250332279A1, “PHARMACEUTICAL COMPOSITION AND METHOD FOR TREATING GLIOBLASTOMAS” (National Cheng Kung University, priority 2024, published 2025)
